Results reported in paper PMC9612383, “Biological Activity of NHC-Gold-Alkynyl Complexes Derived from 3-Hydroxyflavones” (Pharmaceutics, 2022).

What was measured:
[1] = molecular target: T1, dihydrofolate reductase (DHFR) (Escherichia coli, UniProt P0ABQ4); assay: DHFR activity assay in E. coli lysates; type: biochemical; details: E. coli lysates incubated with complex; p < 0.05
T1 construct: to 0.01–0.03 mg of cell lysate and completed with reaction buffer; endogenous in cells; host or cells: E. coli (lysate)
T1 sequence (P0ABQ4 whole entry): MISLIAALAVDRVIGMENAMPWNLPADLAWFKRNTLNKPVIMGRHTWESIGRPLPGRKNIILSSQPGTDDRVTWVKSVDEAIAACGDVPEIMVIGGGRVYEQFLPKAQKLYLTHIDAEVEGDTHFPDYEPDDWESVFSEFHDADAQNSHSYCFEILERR
Description: (§1) For sample preparation, E. coli were lysated by sonication. After ultrasonic homogenization, the lysate was centrifuged 1 min at 13,000 rpm and the pellet was resuspended in extraction buffer. […] Both extraction and reaction buffer consisted of 10 mM Tris-HCl, 1 mM EDTA, 100 mM NaCl and protease inhibitor.

E. coli 13216 = assay: Disk diffusion test; type: cell-based; details: complex 5 μg, 24 h incubation; diameter including disk (6 mm)
Description: (§2) To evaluate the antibacterial potential of gold derivatives, six bacterial strains were selected: E. coli, P. aeruginosa, S. enterica, E. faecalis, L. monocytogenes, S. epidermidis, S. aureus. Dis diffusion assay was performed following Clinical & Laboratory Standards Institute (CLSI) recommendations. […] Plates were and incubated for 22 h ± 2 h at 37 °C ± 1 °C and then the diameter of the inhibition zone was determined.

E. coli 25922 = assay: Disk diffusion test; type: cell-based; details: complex 5 μg, 24 h incubation; diameter including disk (6 mm)
Description: as §2

S. aureus 2593 = assay: Disk diffusion test; type: cell-based; details: complex 5 μg, 24 h incubation; diameter including disk (6 mm)
Description: as §2

S. epidermidis = assay: Disk diffusion test; type: cell-based; details: complex 5 μg, 24 h incubation; diameter including disk (6 mm)
Description: as §2

P. aeruginosa = assay: Disk diffusion test; type: cell-based; details: complex 5 μg, 24 h incubation; diameter including disk (6 mm)
Description: as §2

E. faecalis = assay: Disk diffusion test; type: cell-based; details: complex 5 μg, 24 h incubation; diameter including disk (6 mm)
Description: as §2

L. monocytogenes = assay: Disk diffusion test; type: cell-based; details: complex 5 μg, 24 h incubation; diameter including disk (6 mm)
Description: as §2

S. aureus 13565 = assay: Disk diffusion test; type: cell-based; details: complex 5 μg, 24 h incubation; diameter including disk (6 mm)
Description: as §2

S. enterica 14028 = assay: Disk diffusion test; type: cell-based; details: complex 5 μg, 24 h incubation; diameter including disk (6 mm)
Description: as §2

[2] = molecular target: thioredoxin reductase (TrxR) (Escherichia coli, UniProt P0A9P4); details: E. coli cell lysates incubated with complex
thioredoxin reductase (TrxR), sequence (P0A9P4 whole entry): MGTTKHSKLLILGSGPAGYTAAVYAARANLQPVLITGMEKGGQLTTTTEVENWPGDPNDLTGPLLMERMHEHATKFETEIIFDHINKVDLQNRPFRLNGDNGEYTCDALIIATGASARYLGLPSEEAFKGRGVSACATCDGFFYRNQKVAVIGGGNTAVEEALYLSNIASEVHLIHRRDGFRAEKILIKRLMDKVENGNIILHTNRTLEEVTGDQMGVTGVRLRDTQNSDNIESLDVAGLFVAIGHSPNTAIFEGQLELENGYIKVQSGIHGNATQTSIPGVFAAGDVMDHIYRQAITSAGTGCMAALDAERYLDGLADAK
Description: as §1

Caco-2 cells [3] = assay: MTT antiproliferative assay; type: cell-based, Human; details: Caco-2 cell line, 72 h incubation, mean ± SE
Description: Human colorectal adenocarcinoma Caco-2 cells were kindly provided by Dr. Edith Brot-Laroche (Universite Pierre et Marie Curie-Paris 6 UMR S872, Les Cordeliers, France) and were maintained in a humidified atmosphere of 5% CO2 at 37 °C in Dulbecco’s Modified Eagles medium (DMEM) (Gibco Invitrogen, Paisley, UK) supplemented with 20% fetal bovine serum, 1% non-essential amino acids, 1% penicillin (1000 U/mL), 1% streptomycin ([…]) and 1% amphotericin (250 U/mL). For treatment, gold complexes were initially dissolved in DMSO to a concentration of 20 mM and then diluted on cell culture without fetal bovine serum to the required work concentrations, which was added 24 h post-seeding. Then, cells were incubated at 37 °C for the required time for each assay.
Cell viability was determined with the 3-(4,5-dimethyl-2-thiazoyl)-2,5-diphenyltetrazolium bromide (MTT) assay as previously described by Mármol et al.. For IC50 calculation, cells were grown in 96-well plates at a density of 4000 cells per well and incubated overnight at standard culture conditions. Then, cells were exposed 72 h to 0–20 μM of each gold complex and changes in absorbance were converted into percentage of growth inhibition in comparison to negative control (DMSO. Absorbance was measured with SPECTROstar Nano (BMG Labtech).

[4] = n-Octanol-water distribution coefficient, shake-flask; type: physicochemical; details: n-octanol / buffered aqueous solution pH 7.4
Description: The n-octanol-water coefficients of the complexes were determined as previously reported using a shake-flask method. Buffered-saline distilled water (100 mL, phosphate buffer [PO4^3−] = 10 mM, [NaCl] = 0.15 M, pH 7.4) and n-octanol (100 mL) were shaken for 72 h to allow saturation of both phases. Approximately 1 mg of the complexes was dissolved in 5 mL of the aqueous phase and 5 mL of the organic phase were added, mixing for 10 min. The resulting emulsion was centrifuged to separate the phases. The concentration of the compounds in each phase was determined using UV absorbance spectroscopy. LogP was defined as log{[compound(organic)]/[compound(aqueous)]}.

[5] = molecular target: T2, human recombinant thioredoxin reductase (Homo sapiens, UniProt Q16881); assay: Recombinant human TrxR activity (DTNB); type: biochemical; details: 40 μM of complex; p > 0.05
T2 construct: purchased SIGMA SRP6081
T2 sequence (Q16881 151-649 limits assumed): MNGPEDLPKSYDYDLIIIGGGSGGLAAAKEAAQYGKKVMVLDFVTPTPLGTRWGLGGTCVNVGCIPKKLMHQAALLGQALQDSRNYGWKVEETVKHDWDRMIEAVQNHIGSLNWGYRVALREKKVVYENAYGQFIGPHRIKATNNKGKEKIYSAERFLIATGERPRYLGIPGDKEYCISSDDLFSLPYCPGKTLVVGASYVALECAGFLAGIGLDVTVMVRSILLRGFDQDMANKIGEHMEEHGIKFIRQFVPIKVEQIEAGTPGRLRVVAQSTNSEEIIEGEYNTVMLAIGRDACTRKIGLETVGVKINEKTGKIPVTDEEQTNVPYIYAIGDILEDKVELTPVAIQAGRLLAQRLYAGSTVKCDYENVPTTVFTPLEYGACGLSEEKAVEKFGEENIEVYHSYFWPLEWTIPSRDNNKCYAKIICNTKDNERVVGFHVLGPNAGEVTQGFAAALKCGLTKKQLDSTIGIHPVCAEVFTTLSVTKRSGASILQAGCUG
Description: A measurement of human recombinant thioredoxin reductase was performed as previously described by Quero et al.. Briefly, gold complex was dissolved in DMSO at the desired concentrations and was incubated for 45 min with recombinant human TrxR (SIGMA SRP6081) at 37 °C in a 96 well plate. 25 μL of reaction mix, composed by 500 μL PBS pH 7.4, 80 μL 100 mM EDTA pH 7.5, 20 μL 0.05% BSA, 20 mM 100 μL NADPH, and 300 μL distilled H2O, was then added to each well. 25 μL of 20 mM 5,5′-dithiobis(2-nitrobenzoic acid) (DNTB), dissolved in 100% EtOH, were added to start the reaction and changes in absorbance at 405 nm were monitored every 10 s for 6 min. For comparison purposes, the activity of recombinant TrxR in presence of DMSO was used as negative control.

Caco-2 cells [6] = assay: Intracellular ROS levels; type: cell-based, Human; details: Caco-2 cells, 10, 20 and 40 μM, 1 h incubation; p > 0.05
Description: Caco-2 cells were grown in 96-well plates (4000 cells/well) and incubated overnight at 5% CO2 and 37 °C. Then, cells were exposed to the required concentration of gold complex for 1 h and total intracellular ROS levels determination was performed as previously described by Sanchez-de-Diego et al..

Cn1cc[n+](C)[c]1[Au-][C]#CCOc1c(-c2ccc(Br)cc2)oc2ccccc2c1=O [1b, [Au(Lb)(IMe)] (R = Br; IMe = C5H10N2)]
DHFR activity (percentage respect to control) [1]: significantly decreased DHFR activity
Inhibition Zone (E. coli 13216): 10.95 ± 0.64 mm
Inhibition Zone (E. coli 25922): 9.04 ± 2.17 mm
Inhibition Zone (S. aureus 2593): 13.76 ± 0.54 mm
Inhibition Zone (S. epidermidis): 25.05 ± 1.48 mm
Inhibition Zone (P. aeruginosa): -
Inhibition Zone (E. faecalis): 12.50 ± 1.41 mm
Inhibition Zone (L. monocytogenes): 18.50 ± 1.41 mm
Inhibition Zone (S. aureus 13565): 16.58 ± 1.63 mm
Inhibition Zone (S. enterica 14028): 9.39 ± 1.26 mm
TrxR activity (percentage respect to control) [2]: did not result in a significative reduction of TrxR activity
IC50 (Caco-2 cells [3]): 23 ± 2.42 µM
LogP7.4 (distribution coefficient) [4]: 1.32
enzymatic activity of recombinant TrxR [5]: no significant changes
reactive oxygen species (ROS) levels (Caco-2 cells [6]): no significant changes
